From ChEMBL document CHEMBL3046644, “Biological activity of tropolone” (Biol Pharm Bull, 2003)
Converted amounts (≈) assume the structure as drawn.

Assays:
Dermatophagoides farinae [1] = experiment: Insecticidal activity against Dermatophagoides farinae assessed as mortality at 0.05 g/m'2 after 24 hr by clip method; type: functional
Tyrophagus putrescentiae [2] = experiment: Insecticidal activity against Tyrophagus putrescentiae assessed as mortality after 24 hr by clip method; type: functional
Fusarium solani = experiment: Antifungal activity against Fusarium solani IFO 9955 after 15 days by agar dilution method; type: functional; details: IFO 9955, 360 h
Coptotermes formosanus [3] = experiment: Insecticidal activity against Coptotermes formosanus assessed as mortality at 0.025 g/m'2 after 48 hr; type: functional
Dermatophagoides farinae [4] = experiment: Insecticidal activity against Dermatophagoides farinae assessed as mortality at 0.30 g/m'2 after 24 hr by clip method; type: functional
Coptotermes formosanus [5] = experiment: Insecticidal activity against Coptotermes formosanus assessed as mortality at 0.050 g/m'2 after 24 hr; type: functional
Thanatephorus cucumeris = experiment: Antifungal activity against Thanatephorus cucumeris IFO 30445 after 15 days by agar dilution method; type: functional; details: IFO 30445, 360 h
Thermolysin = target: T1, Thermolysin (Bacillus thermoproteolyticus, UniProt P00800); experiment: Inhibition of Bacillus thermoproteolyticus thermolysin after 15 min
T1 sequence (P00800 whole entry): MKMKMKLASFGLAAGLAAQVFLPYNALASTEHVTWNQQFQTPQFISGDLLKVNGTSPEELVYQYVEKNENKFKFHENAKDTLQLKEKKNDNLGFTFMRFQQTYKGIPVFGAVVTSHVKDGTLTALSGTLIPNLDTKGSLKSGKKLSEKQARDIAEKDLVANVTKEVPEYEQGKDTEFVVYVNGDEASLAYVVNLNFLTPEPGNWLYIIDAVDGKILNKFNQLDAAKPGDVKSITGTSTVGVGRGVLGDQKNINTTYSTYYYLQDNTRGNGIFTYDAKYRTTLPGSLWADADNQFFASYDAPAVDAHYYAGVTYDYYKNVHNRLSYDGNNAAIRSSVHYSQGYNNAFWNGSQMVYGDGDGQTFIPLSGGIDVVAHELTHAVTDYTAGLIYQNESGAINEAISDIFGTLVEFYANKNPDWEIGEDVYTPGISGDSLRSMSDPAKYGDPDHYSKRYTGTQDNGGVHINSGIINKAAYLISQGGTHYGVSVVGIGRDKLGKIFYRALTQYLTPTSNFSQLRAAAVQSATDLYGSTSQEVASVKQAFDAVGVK

Coptotermes formosanus [6] = experiment: Insecticidal activity against Coptotermes formosanus assessed as mortality at 0.100 g/m'2 after 48 hr; type: functional
Tyrophagus putrescentiae [7] = experiment: Insecticidal activity against Tyrophagus putrescentiae assessed as mortality at 0.30 g/m'2 after 24 hr by clip method; type: functional
Dermatophagoides farinae [8] = experiment: Insecticidal activity against Dermatophagoides farinae assessed as mortality at 0.025 g/m'2 after 24 hr by clip method; type: functional
Tyrophagus putrescentiae [9] = experiment: Insecticidal activity against Tyrophagus putrescentiae assessed as mortality at 0.40 g/m'2 after 24 hr by clip method; type: functional
[10] = test system: Colletotrichum orbiculare; experiment: Antifungal activity against Colletotrichum orbiculare MAFF 306518 after 15 days by agar dilution method; type: functional; details: MAFF 306518, 360 h
Dermatophagoides farinae [11] = experiment: Insecticidal activity against Dermatophagoides farinae assessed as mortality at 0.10 g/m'2 after 24 hr by clip method; type: functional
Coptotermes formosanus [12] = experiment: Insecticidal activity against Coptotermes formosanus assessed as mortality at 0.050 g/m'2 after 48 hr; type: functional
Phomopsis obscurans = experiment: Antifungal activity against Phomopsis obscurans MAFF 744018 after 15 days by agar dilution method; type: functional; details: Paraphomopsis obscurans, MAFF 744018, 360 h
Colletotrichum lagenaria = experiment: Antifungal activity against Colletotrichum lagenaria after 15 days by agar dilution method; type: functional; details: 360 h
Dermatophagoides farinae [13] = experiment: Insecticidal activity against Dermatophagoides farinae assessed as mortality at 0.40 g/m'2 after 24 hr by clip method; type: functional
Coptotermes formosanus [14] = experiment: Insecticidal activity against Coptotermes formosanus assessed as mortality; type: functional
Tyrophagus putrescentiae [15] = experiment: Insecticidal activity against Tyrophagus putrescentiae assessed as mortality at 0.50 g/m'2 after 24 hr by clip method; type: functional
Coptotermes formosanus [16] = experiment: Insecticidal activity against Coptotermes formosanus assessed as mortality at 0.200 g/m'2 after 24 hr; type: functional
Botrytis cinerea = experiment: Antifungal activity against Botryotinia fuckeliana IFO 30915 after 15 days by agar dilution method; type: functional; details: IFO 30915, 360 h
Tyrophagus putrescentiae [17] = experiment: Insecticidal activity against Tyrophagus putrescentiae assessed as mortality at 0.20 g/m'2 after 24 hr by clip method; type: functional
Dermatophagoides farinae [18] = experiment: Insecticidal activity against Dermatophagoides farinae assessed as mortality at 0.50 g/m'2 after 24 hr by clip method; type: functional
Tyrophagus putrescentiae [19] = experiment: Insecticidal activity against Tyrophagus putrescentiae assessed as mortality at 0.10 g/m'2 after 24 hr by clip method; type: functional
Dermatophagoides farinae [20] = experiment: Insecticidal activity against Dermatophagoides farinae assessed as mortality at 0.20 g/m'2 after 24 hr by clip method; type: functional
Pythium aphanidermatum = experiment: Antifungal activity against Pythium aphanidermatum IFO 32440 after 15 days by agar dilution method; type: functional; details: IFO 32440, 360 h
Coptotermes formosanus [21] = experiment: Insecticidal activity against Coptotermes formosanus assessed as mortality at 0.025 g/m'2 after 24 hr; type: functional
Coptotermes formosanus [22] = experiment: Insecticidal activity against Coptotermes formosanus assessed as mortality at 0.200 g/m'2 after 48 hr; type: functional
Coptotermes formosanus [23] = experiment: Insecticidal activity against Coptotermes formosanus assessed as mortality at 0.100 g/m'2 after 24 hr; type: functional
Dermatophagoides farinae [24] = experiment: Insecticidal activity against Dermatophagoides farinae assessed as mortality after 24 hr by clip method; type: functional
Carboxypeptidase A1 = target: T2, Carboxypeptidase A1 (Bos taurus, UniProt P00730); experiment: Inhibition of Bos taurus (bovine) pancrease carboxypeptidase A after 15 min
T2 sequence (P00730 whole entry): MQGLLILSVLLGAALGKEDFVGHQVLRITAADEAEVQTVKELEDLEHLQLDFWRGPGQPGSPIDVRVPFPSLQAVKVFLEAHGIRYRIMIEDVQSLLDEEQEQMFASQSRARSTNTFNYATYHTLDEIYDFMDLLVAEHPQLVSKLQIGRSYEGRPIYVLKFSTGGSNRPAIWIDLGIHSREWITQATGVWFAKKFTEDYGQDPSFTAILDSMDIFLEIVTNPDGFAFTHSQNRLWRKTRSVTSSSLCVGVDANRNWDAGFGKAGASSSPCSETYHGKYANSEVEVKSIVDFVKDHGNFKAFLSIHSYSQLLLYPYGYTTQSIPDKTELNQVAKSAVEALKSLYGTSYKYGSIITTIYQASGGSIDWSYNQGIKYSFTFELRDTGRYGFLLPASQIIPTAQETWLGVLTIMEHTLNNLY

Collagenase ColG = target: T3, Collagenase ColG (Clostridium histolyticum, UniProt Q9X721); experiment: Inhibition of Clostridium histolyticum collagenase after 15 min; parameters: species or system Hathewaya histolytica
T3 sequence (Q9X721 whole entry): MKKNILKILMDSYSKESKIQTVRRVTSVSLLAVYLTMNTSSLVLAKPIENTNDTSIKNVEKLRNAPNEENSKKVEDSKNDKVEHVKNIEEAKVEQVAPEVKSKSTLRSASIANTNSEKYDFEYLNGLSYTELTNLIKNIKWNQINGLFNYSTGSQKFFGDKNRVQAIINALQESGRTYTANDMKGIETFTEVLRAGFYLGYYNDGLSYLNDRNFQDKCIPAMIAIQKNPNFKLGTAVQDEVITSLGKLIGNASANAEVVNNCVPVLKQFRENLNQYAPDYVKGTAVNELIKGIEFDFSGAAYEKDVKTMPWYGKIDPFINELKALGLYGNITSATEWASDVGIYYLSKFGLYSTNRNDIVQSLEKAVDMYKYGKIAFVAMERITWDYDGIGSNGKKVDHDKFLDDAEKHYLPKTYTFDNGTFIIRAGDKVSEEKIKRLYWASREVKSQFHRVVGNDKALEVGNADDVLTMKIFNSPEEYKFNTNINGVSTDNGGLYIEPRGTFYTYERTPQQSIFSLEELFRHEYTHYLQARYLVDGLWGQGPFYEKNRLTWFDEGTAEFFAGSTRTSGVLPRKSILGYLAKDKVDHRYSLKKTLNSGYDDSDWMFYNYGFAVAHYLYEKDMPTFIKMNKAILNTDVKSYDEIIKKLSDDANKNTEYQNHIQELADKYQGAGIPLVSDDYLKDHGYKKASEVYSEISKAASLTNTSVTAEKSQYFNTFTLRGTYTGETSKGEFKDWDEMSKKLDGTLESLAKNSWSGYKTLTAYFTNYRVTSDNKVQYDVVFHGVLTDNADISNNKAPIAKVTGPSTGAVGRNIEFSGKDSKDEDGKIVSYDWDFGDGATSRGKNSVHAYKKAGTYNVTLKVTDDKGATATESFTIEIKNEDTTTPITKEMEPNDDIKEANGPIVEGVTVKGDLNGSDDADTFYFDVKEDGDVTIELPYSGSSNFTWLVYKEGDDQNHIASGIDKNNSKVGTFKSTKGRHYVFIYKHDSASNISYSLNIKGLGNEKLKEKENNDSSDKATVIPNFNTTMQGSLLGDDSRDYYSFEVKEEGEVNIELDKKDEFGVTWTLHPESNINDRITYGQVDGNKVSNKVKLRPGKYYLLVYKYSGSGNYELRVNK

Coptotermes formosanus [25] = experiment: Insecticidal activity against Coptotermes formosanus assessed as mortality at 1 g/m'2 after 48 hr; type: functional
Dermatophagoides farinae [26] = experiment: Insecticidal activity against Dermatophagoides farinae assessed as mortality at 1 g/m'2 after 24 hr by clip method; type: functional
Coptotermes formosanus [27] = experiment: Insecticidal activity against Coptotermes formosanus assessed as mortality at 0.020 g/m'2 after 24 hr; type: functional
Tyrophagus putrescentiae [28] = experiment: Insecticidal activity against Tyrophagus putrescentiae assessed as mortality at 0.80 g/m'2 after 24 hr by clip method; type: functional
Dermatophagoides farinae [29] = experiment: Insecticidal activity against Dermatophagoides farinae assessed as mortality at 0.03 g/m'2 after 24 hr by clip method; type: functional
Tyrophagus putrescentiae [30] = experiment: Insecticidal activity against Tyrophagus putrescentiae assessed as mortality at 0.60 g/m'2 after 24 hr by clip method; type: functional
Dermatophagoides farinae [31] = experiment: Insecticidal activity against Dermatophagoides farinae assessed as mortality at 0.80 g/m'2 after 24 hr by clip method; type: functional
Tyrophagus putrescentiae [32] = experiment: Insecticidal activity against Tyrophagus putrescentiae assessed as mortality at 1 g/m'2 after 24 hr by clip method; type: functional
Coptotermes formosanus [33] = experiment: Insecticidal activity against Coptotermes formosanus assessed as mortality at 0.020 g/m'2 after 48 hr; type: functional
Coptotermes formosanus [34] = experiment: Insecticidal activity against Coptotermes formosanus assessed as mortality at 0.010 g/m'2 after 24 hr; type: functional
Coptotermes formosanus [35] = experiment: Insecticidal activity against Coptotermes formosanus assessed as mortality at 1 g/m'2 after 24 hr; type: functional
Dermatophagoides farinae [36] = experiment: Insecticidal activity against Dermatophagoides farinae assessed as mortality at 0.60 g/m'2 after 24 hr by clip method; type: functional
Coptotermes formosanus [37] = experiment: Insecticidal activity against Coptotermes formosanus assessed as mortality at 0.010 g/m'2 after 48 hr; type: functional

Compound	mortality (Dermatophagoides farinae [1])	LC50 (Tyrophagus putrescentiae [2])	MIC (Fusarium solani)	mortality (Coptotermes formosanus [5])	MIC (Thanatephorus cucumeris)	IC50 (Thermolysin)	mortality (Coptotermes formosanus [6])	mortality (Tyrophagus putrescentiae [9])	MIC [10]	mortality (Dermatophagoides farinae [11])	mortality (Coptotermes formosanus [12])	MIC (Phomopsis obscurans)	MIC (Colletotrichum lagenaria)	mortality (Dermatophagoides farinae [13])	LC50 (Coptotermes formosanus [14])	mortality (Coptotermes formosanus [16])	MIC (Botrytis cinerea)	mortality (Tyrophagus putrescentiae [17])	IC50 (Carboxypeptidase A1)	IC50 (Collagenase ColG)	also measured
CC(C)c1cccc(=O)c(O)c1 [HINOKITIOL]	18.8%	0.24 g/m2	50 µg/mL (≈ 304 µM)	40%	12 µg/mL (≈ 73.1 µM)	61 µM	100%	77.5%	25 µg/mL (≈ 152 µM)	45.2%	50%	12 µg/mL (≈ 73.1 µM)	25 µg/mL (≈ 152 µM)	100%	0.08 g/m2	100%	50 µg/mL (≈ 304 µM)	33.6%	2.76 µM	24 µM	mortality (Coptotermes formosanus [3]): 20%; mortality (Dermatophagoides farinae [4]): 100%; mortality (Tyrophagus putrescentiae [7]): 55.5%; mortality (Dermatophagoides farinae [8]): 7.8%; mortality (Tyrophagus putrescentiae [15]): 91.3%; mortality (Dermatophagoides farinae [18]): 100%; mortality (Tyrophagus putrescentiae [19]): 11.9%; mortality (Dermatophagoides farinae [20]): 96.3%; MIC (Pythium aphanidermatum): 12 µg/mL (≈ 73.1 µM); mortality (Coptotermes formosanus [21]): 10%; mortality (Coptotermes formosanus [22]): 100%; mortality (Coptotermes formosanus [23]): 50%; LC50 (Dermatophagoides farinae [24]): 0.37 g/m2
c1cnc2c(c1)ccc1cccnc12 [PHENANTHROLINE]						360 µM													422 µM	185 µM	
O=c1cccccc1O [TROPOLONE]	7.5%	0.11 g/m2	25 µg/mL (≈ 205 µM)	45%	12 µg/mL (≈ 98.3 µM)	71.1 µM	89.5%	55.8%	12 µg/mL (≈ 98.3 µM)	24.5%	77.8%	12 µg/mL (≈ 98.3 µM)	12 µg/mL (≈ 98.3 µM)	100%	0.04 g/m2	100%	25 µg/mL (≈ 205 µM)	9.6%	2.73 µM	46.8 µM	mortality (Coptotermes formosanus [25]): 100%; mortality (Dermatophagoides farinae [26]): 100%; mortality (Coptotermes formosanus [27]): 37.5%; mortality (Tyrophagus putrescentiae [28]): 100%; mortality (Dermatophagoides farinae [29]): 0%; mortality (Tyrophagus putrescentiae [30]): 79.8%; mortality (Dermatophagoides farinae [31]): 100%; mortality (Tyrophagus putrescentiae [32]): 100%; mortality (Coptotermes formosanus [33]): 57.9%; mortality (Dermatophagoides farinae [20]): 95.7%; MIC (Pythium aphanidermatum): 6 µg/mL (≈ 49.1 µM); mortality (Coptotermes formosanus [34]): 0%; mortality (Coptotermes formosanus [35]): 100%; mortality (Dermatophagoides farinae [36]): 100%; mortality (Coptotermes formosanus [22]): 100%; mortality (Coptotermes formosanus [23]): 78.9%; LC50 (Dermatophagoides farinae [24]): 0.08 g/m2; mortality (Coptotermes formosanus [37]): 0%
